Converted amounts (≈) assume the structure as drawn. Read-outs that look alike come from different tables or passages of the source. No end group written: not given here.
Legend:
[1] = test system: Salmonella choleraesuis Strand 74
Protocol: (§3) The minimal inhibitory concentration (MIC) and minimal bactericidal concentration (MBC) were obtained to determine bacteriostatic and bactericidal activities, respectively, for each strain of the bacteria listed above. […] The lowest concentration which inhibited bacterial growth was deemed the MIC. The MBC was determined by spreading 100 μl from each tube of the MIC on an LB or TSA plate and incubating overnight.

[2] = test system: Salmonella choleraesuis Strand 75
Protocol: as §3

Fusarium pisi = assay: MIC and MBC analysis against the filamentous fungus Fusarium pisi; type: cell-based
Protocol: (§1) Monodoncin was tested for its antibacterial activities against various Gram (−) bacteria, including E. coli, Vibrio harveyi, Vibrio alginolyticus, and Salmonella cholesaesuis, various Gram (+) bacteria, such as Aerococcus viridian, and filamentous fungi, such as Fusarium pisi.

Fusarium oxysporum = assay: MIC and MBC analysis against the filamentous fungus Fusarium oxysporum; type: cell-based
Aerococcus viridian = assay: Bacteriostatic (MIC) and bactericidal (MBC) analysis against Aerococcus viridian; type: cell-based
Protocol: as §1

Vibrio harveyi [3] = assay: microbe, parasite or virus in culture
Protocol: as §1
(§2) The bacteria were cultured under conventional methods. For example, E. coli strain was cultured in LB, 37° C. The marine microorganisms that are pathogenic for shrimp, such as Vibrio harveyi and Vibrio alginolyticus, were cultured in trypticase soy broth/agar (1.5% NaCl), 25° C.

Vibrio alginolyticus = assay: microbe, parasite or virus in culture
Protocol: as §1, §2

E. coli [4] = assay: microbe, parasite or virus in culture
Protocol: as §1, §2

Vibrio harveyi [5] = assay: Mortality of tiger shrimp after Vibrio harveyi challenge (FIG. 5); type: in vivo, Penaeus monodon
Protocol: (-⋄-): PBS control (negative control); (-▪-): Vibrio harveyi challenge (positive control); (-▴-): cecropin+Vibrio harveyi (non-monodoncin treatment group); (-●-): monodoncin+Vibrio harveyi (monodoncin treatment group).
Vibrio harveyi is a gram-negative marine bacterium that is in the natural living environment of the tiger shrimp. A suspension of the microorganism […] containing 10^5 cells was used for each tiger shrimp. The suspension was injected into the shrimp abdominal muscle. Hemocytes were collected as Example 1 at different times (from 0 to 72 hours) post-injection. Unchallenged animals were used as controls.

E. coli [6] = assay: SEM analysis of interaction of monodoncin with E. coli; type: cell-based, Escherichia coli; details: monodoncin 10 μM, 12 hrs of treatment
Protocol: Monodoncin at […] was used to treat E. Coli and Vibrios, and the pathogens prior to and after the treatment were monitored under Scanning Electron Microscope (SEM) and Atomic Force Microscope (AFM).
Scanning electron microscopy (SEM) was conducted by incubating […] of E. coli (109 C.F.U./ml) with or without 50 μl monodoncin (10000 μM) at 37° C. for 1 h, 3 h, 6 h, and 12 h. Three milliliters of each of the bacterial suspensions (at various time frames) were fixed by adding 1 ml of 6% glutaraldehyde in 0.1 M sodium cacodylate trihydrate buffer (pH 6.8). After fixation for 1 h at […], the bacterial suspensions were pelleted, the used fixative was removed, 2 ml of the new fixative were added, and the bacteria were incubated for 5 min at […] Two additional 5-min fixations were conducted, followed by addition of 2 ml of 1% osmium tetroxide in 0.1 M cacodylate buffer, and the fixation was allowed to proceed for 30 min at […] The osmium tetroxide was removed, and the bacterial suspensions were washed in 2 ml of 0.1 M cacodylate buffer. […] The SEM mounts were then sputter coated with gold (Edwards S150A sputter coater; Edwards High Vacuum, Crawley, West Sussex, England) and analyzed on a Hitachi H300-3010 scanning image accessory electron microscope.

With `CC1(C)S[C@@H]2[C@H](NC(=O)[C@H](N)c3ccc(O)cc3)C(=O)N2[C@H]1C(=O)O` [Amoxicillin, amoxicillin] the MIC ([1]; Strand 74, amoxicillin alone) was >64 µg and the MIC ([2]; Strand 75, amoxicillin alone) was >64 µg.

In the case of `CN(C)[C@@H]1C(O)=C(C(N)=O)C(=O)[C@@]2(O)C(O)=C3C(=O)c4c(O)cccc4[C@@](C)(O)[C@H]3C[C@@H]12` [Tetracycline, tetracycline], the MBC (Fusarium pisi; Fusarium vanettenii) is reported as > 500 µM, the MIC (Fusarium pisi; Fusarium vanettenii) is reported as 300 µM (≈ 133 µg/mL) and the MBC (Fusarium oxysporum) is reported as 500 µM (≈ 222 µg/mL). The MIC (Fusarium oxysporum) was 500 µM (≈ 222 µg/mL), the MBC (Aerococcus viridian) was 300 µM (≈ 133 µg/mL) and the MIC (Aerococcus viridian) was 30 µM (≈ 13.3 µg/mL). For the same compound, the MBC (Vibrio harveyi [3]; Vibrio harveyi) was 403 µM (≈ 179 µg/mL), the MIC (Vibrio harveyi [3]; Vibrio harveyi) was 6.3 µM (≈ 2.8 µg/mL) and the MBC (Vibrio alginolyticus; Vibrio alginolyticus) was > 202 µM. It also gave an MIC (Vibrio alginolyticus; Vibrio alginolyticus) of 25.2 µM (≈ 11.2 µg/mL) and an MBC (E. coli [4]; Escherichia coli) of 403 µM (≈ 179 µg/mL).

For Cecropin, the MBC ([1]; Strand 74, peptide alone) was 31.2 µg/mL, the MIC ([1]; Strand 74, peptide alone) was 16.5 µg/mL and the MBC ([2]; Strand 75, peptide alone) was >31.2 µg/mL. The MIC ([2]; Strand 75, peptide alone) was 31.2 µg/mL.

In the case of “GWGSFFKKAAHVGKHVGKAALTHYL-NH2 (C-terminus assumed) [Pleurocidin, pleurocidin]”, the MBC (Vibrio harveyi [3]) is reported as 200 µM, the MIC (Vibrio harveyi [3]) is reported as 200 µM and the MBC (Vibrio alginolyticus) is reported as >500 µM. It also gave an MIC (Vibrio alginolyticus) of 500 µM, an MBC (E. coli [4]) of 500 µM and an MIC (E. coli [4]) of 450 µM.

With “QGYQGGYTRPFPRPPYGGGYHPVPVCTSCHRLSPLQARACCRQLGRCCDAKQTYG (cysteines drawn unpaired) [Monodoncin]” the “mortality rate relative to that in the untreated group” value (Vibrio harveyi [5]) was 40%, the “reduction of tiger shrimp mortality” value (Vibrio harveyi [5]) was “at least 40%” and the “number of bacteria in the culture” value (E. coli [6]) was “significantly reduced”.

magainins showed an MBC (Fusarium pisi) of 1 µM, an MIC (Fusarium pisi) of 1 µM and an MBC (Fusarium oxysporum) of 1 µM. It also gave an MIC (Fusarium oxysporum) of 1 µM, an MBC (Aerococcus viridian) of 5 µM and an MIC (Aerococcus viridian) of 1 µM. For the same compound, the MBC (Vibrio harveyi [3]; Vibrio harveyi) was 30 µM, the MIC (Vibrio harveyi [3]; Vibrio harveyi) was 30 µM and the MBC (Vibrio alginolyticus; Vibrio alginolyticus) was 300 µM. The MIC (Vibrio alginolyticus; Vibrio alginolyticus) was 150 µM, the MBC (E. coli [4]; E. coli) was 70 µM and the MIC (E. coli [4]; E. coli) was 40 µM.

From patent publication US7670836B2, “Antimicrobial peptide isolated from Penaeus monodon” (priority 2003, dated 2010)
